Data taken from patent publication US20230026232A1, “AHR INHIBITORS AND USES THEREOF” (Ikena Oncology, Inc., priority 2019, published 2023).

What was measured:
[1] = Phase 1 dose-escalation study: interim cohort pharmacokinetics; type: in vivo, human; conditions: for dose proportionality of PK: Cycle 2 Day 1 (C2D1)
Procedure: Serial blood samples are obtained to characterize the plasma PK of Compound A and its major active metabolites. The initial sampling strategy is based on the predicted human PK of this compound. If in the course of evaluating the PK, it is determined that an alternative sampling scheme would be more informative, then that alternative sampling scheme may be implemented if the total amount of blood and blood draws obtained for PK is not increased. Moreover, the total number of samples may be decreased at any time if the initial sampling scheme is considered unnecessarily intensive.
Interim cohort pharmacokinetics were assessed on parent (Compound A) and two active metabolites (Compound B and Compound C). […] Compound B metabolite ratio is increased on C2D1 in cohorts above 200 mg dosages. […] Without wishing to be bound or limited by theory, elimination rate limited kinetics likely contributing to the accumulation of Compound B through on-target inhibition of CYP1A1.

[2] = target: T1, AHR (Homo sapiens, UniProt P35869); experiment: HepG2 DRE-Luc reporter assay, VAF347-stimulated luciferase expression; type: cell-based; parameters: endogenous in cells; host or cells: HepG2 DRE-Luc reporter cell line; conditions: 80 nM VAF347, n=2
T1 sequence (P35869 11-848): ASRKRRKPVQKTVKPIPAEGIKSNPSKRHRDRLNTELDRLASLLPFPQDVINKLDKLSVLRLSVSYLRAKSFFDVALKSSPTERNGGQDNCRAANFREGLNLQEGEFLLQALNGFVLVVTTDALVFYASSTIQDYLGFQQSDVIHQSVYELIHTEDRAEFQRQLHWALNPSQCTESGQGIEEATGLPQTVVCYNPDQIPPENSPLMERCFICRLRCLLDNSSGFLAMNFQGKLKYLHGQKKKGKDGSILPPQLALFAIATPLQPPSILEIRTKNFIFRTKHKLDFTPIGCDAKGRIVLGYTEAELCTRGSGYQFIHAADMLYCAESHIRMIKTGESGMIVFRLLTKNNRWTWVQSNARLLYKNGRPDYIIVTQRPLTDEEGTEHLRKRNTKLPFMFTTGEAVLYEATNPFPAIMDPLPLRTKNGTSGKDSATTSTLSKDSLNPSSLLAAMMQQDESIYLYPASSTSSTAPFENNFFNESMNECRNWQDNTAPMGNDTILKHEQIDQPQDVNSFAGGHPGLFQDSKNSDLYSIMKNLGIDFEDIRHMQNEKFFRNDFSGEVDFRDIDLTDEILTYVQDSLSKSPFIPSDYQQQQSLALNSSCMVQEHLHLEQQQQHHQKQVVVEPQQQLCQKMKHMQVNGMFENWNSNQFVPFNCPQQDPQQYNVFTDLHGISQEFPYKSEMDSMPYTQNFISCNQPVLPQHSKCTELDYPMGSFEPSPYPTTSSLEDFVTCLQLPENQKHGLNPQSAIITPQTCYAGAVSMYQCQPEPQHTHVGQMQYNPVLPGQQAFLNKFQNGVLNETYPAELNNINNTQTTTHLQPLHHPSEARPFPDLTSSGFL
Procedure: In vitro experiments were conducted to examine the inhibitory activity of Compound A for AHR-mediated transcriptional activation in the HepG2 DRE-Luc reporter cell line. This human hepatoma cell line stably expresses a luciferase reporter gene under control of AHR-responsive DRE enhancer elements (Han, 2004). HepG2 DRE-Luc reporter cells were treated with 80 nM VAF347 to activate AHR.
The inhibitory activity of the human Compound A metabolites, Compound B and Compound C was also determined in the HepG2 DRE-Luc cell line. Reporter cells were stimulated with 80 nM VAF347 and each metabolite at multiple concentrations.

Compound | ratio to Compound A on C2D1 ([1]; 400 mg and 800 mg dose) | dose proportionality of PK [1] | accumulation with repeat dosing ([1]; repeat dosing above 200 mg) | AUC compared with Compound A ([1]; repeated dosing, 2/3 subjects at 400 and 800 mg) | IC50 [2] | ratio to Compound A (AUC) ([1]; 400 mg and 800 mg dose)
CC(C)(O)c1cnn2c(N[C@@H]3CCc4[nH]c5ccccc5c4C3)nc(-c3cncc(F)c3)nc12 [Compound B] | 1.3-1.4 × parent | greater than dose proportional | Accumulation of Compound B observed | greater than Compound A | 0.023 µM | 
C=C(C)c1cnn2c(N[C@@H]3CCc4[nH]c5ccccc5c4C3)nc(-c3cncc(F)c3)nc12 [Compound C] |  | greater than dose proportional |  |  | 0.213 µM | 15-20 % of parent
